Results: patent US20250002458A1, “SALT FORMS OF […]” (UNICYCIVE THERAPEUTICS INC., priority 2023, published 2025)
Where a name gives a salt, the structure may show the parent alone.

Columns and labels:
[1] = Stability of select salts of Compound 1 at 5, 25 and 40° C. over 6 months, purity by HPLC; type: physicochemical
Protocol: A description of the salt and the purity as determined by HPLC are provided initially and at the 1st, 2nd, 3rd, and 6th month for each salt.
Preparation of test solution: About 50.0 mg of test sample was weighed into a 25 mL of volumetric flask and diluent (10 mL) was added. The mixture was sonicated to dissolve sample and diluted up to mark with diluent and mixed well.

[2] = Photostability of iodide and nitrate salts (control, UV, visible); type: physicochemical; settings: for Total impurities: photostability
Protocol: The photostability of Compound 1 iodide salt and Compound 1 nitrate salt were tested.
The photostability of Compound 2 iodide salt and Compound 2 nitrate salt were tested.

Compound | Purity ([1]; 5° C., 1st Month) | Purity ([1]; 5° C., 2nd Month) | Purity ([1]; 5° C., 3rd Month) | Purity ([1]; 5° C., 6th Month) | Purity ([1]; 5° C., Initial) | Purity ([1]; 25° C., 1st Month) | Purity ([1]; 25° C., 2nd Month) | Purity ([1]; 25° C., 3rd Month) | Purity ([1]; 25° C., 6th Month) | Purity ([1]; 25° C., Initial) | Purity ([1]; 40° C., 1st Month) | Purity ([1]; 40° C., 2nd Month) | Purity ([1]; 40° C., 3rd Month) | Purity ([1]; 40° C., 6th Month) | Purity ([1]; 40° C., Initial) | Total impurities compared with the iodide salt ([2]; exposed to both UV and visible light) | Total impurities ([2]; UV) | Total impurities ([2]; Visible) | Total impurities ([2]; control sample)
C[C@H](NC(=O)OC[n+]1cccc(C(=O)NCCO[N+](=O)[O-])c1)C1CCCCC1 [Compound 1 4-Nitrobesylate Salt] | 98.1 | 98.1 | 97.8 | 97.9 | 98.1 | 97.2 | 93.1 | 86.8 | 80.3 | 98.1 | – | – | – | – | – | – | – | – | –
C[C@H](NC(=O)OC[n+]1cccc(C(=O)NCCO[N+](=O)[O-])c1)C1CCCCC1 [Compound 1 Triflate Salt] | 95.0 | 95.0 | 94.8 | 96.1 | 96.6 | 94.4 | 91.1 | 85.8 | 78.5 | 96.6 | – | – | – | – | – | – | – | – | –
C[C@H](NC(=O)OC[n+]1cccc(C(=O)NCCO[N+](=O)[O-])c1)C1CCCCC1 [Compound 1 Sulphate Salt] | 90.7 | 87.9 | 91.1 | 90.9 | 94.7 | 90.0 | 56.9 | 33.7 | 23.5 | 94.7 | 75.6 | 8.3 | 0.9 | 1.5 | 94.7 | – | – | – | –
C[C@H](NC(=O)OC[n+]1cccc(C(=O)NCCO[N+](=O)[O-])c1)C1CCCCC1 [Compound 1 4-Bromobesylate Salt] | 91.0 | 93.1 | 89.6 | 86.6 | 98.4 | 89.0 | 84.2 | 76.8 | 67.6 | 98.4 | – | – | – | – | – | – | – | – | –
C[C@H](NC(=O)OC[n+]1cccc(C(=O)NCCO[N+](=O)[O-])c1)C1CCCCC1 [Compound 1 Besylate Salt] | 88.8 | 88.6 | 87.5 | 86.9 | 96.6 | 87.1 | 79.3 | 66.7 | 51.2 | 96.6 | – | – | – | – | – | – | – | – | –
C[C@H](NC(=O)OC[n+]1cccc(C(=O)NCCO[N+](=O)[O-])c1)C1CCCCC1 [Compound 1 Esylate Salt] | 92.7 | 92.3 | 91.5 | 89.6 | 95.4 | 91.4 | 84.4 | 73.9 | 58.7 | 95.4 | – | – | – | – | – | – | – | – | –
C[C@H](NC(=O)OC[n+]1cccc(C(=O)NCCO[N+](=O)[O-])c1)C1CCCCC1 [Compound 1 Phosphate Salt] | 95.8 | 93.8 | 94.6 | 94.5 | 96.5 | 93.3 | 83.7 | 78.2 | 69.4 | 96.5 | 91.4 | 63.1 | 50.9 | 50.5 | 96.5 | – | – | – | –
C[C@H](NC(=O)OC[n+]1cccc(C(=O)NCCO[N+](=O)[O-])c1)C1CCCCC1 [Compound 1 nitrate salt] | – | – | – | – | – | – | – | – | – | – | – | – | – | – | – | less than the impurities in Compound 1 iodide salt | 0.21 | 0.16 | 0.06
C[C@H](NC(=O)OC[n+]1cccc(C(=O)NCCO[N+](=O)[O-])c1)C1CCCCC1 [Compound 1 Trifluoroacetate Salt] | 97.2 | 96.6 | 97.0 | 97.2 | 98.6 | 96.5 | 94.6 | 92.2 | 85.9 | 98.6 | – | – | – | – | – | – | – | – | –
C[C@H](NC(=O)OC[n+]1cccc(C(=O)NCCO[N+](=O)[O-])c1)C1CCCCC1 [Compound 1 iodide salt] | – | – | – | – | – | – | – | – | – | – | – | – | – | – | – | – | 0.27 | 0.60 | 0.07
C[C@H](NC(=O)OC[n+]1cccc(C(=O)NCCO[N+](=O)[O-])c1)C1CCCCC1 [Compound 1 Perchlorate Salt] | 96.3 | 93.0 | 95.7 | 94.8 | 97.6 | 95.4 | 89.4 | 84.9 | 74.8 | 97.6 | – | – | – | – | – | – | – | – | –
